Molecules are shown by their SMILES.

In the first assay the target is T1, GlyT1 (Homo sapiens, UniProt P48067).
T1 construct: Human placental choriocarcinoma cells endogenously expressing GlyT1; endogenous in cells; host or cells: JAR cells (human placental choriocarcinoma)
T1 sequence (P48067 1-706): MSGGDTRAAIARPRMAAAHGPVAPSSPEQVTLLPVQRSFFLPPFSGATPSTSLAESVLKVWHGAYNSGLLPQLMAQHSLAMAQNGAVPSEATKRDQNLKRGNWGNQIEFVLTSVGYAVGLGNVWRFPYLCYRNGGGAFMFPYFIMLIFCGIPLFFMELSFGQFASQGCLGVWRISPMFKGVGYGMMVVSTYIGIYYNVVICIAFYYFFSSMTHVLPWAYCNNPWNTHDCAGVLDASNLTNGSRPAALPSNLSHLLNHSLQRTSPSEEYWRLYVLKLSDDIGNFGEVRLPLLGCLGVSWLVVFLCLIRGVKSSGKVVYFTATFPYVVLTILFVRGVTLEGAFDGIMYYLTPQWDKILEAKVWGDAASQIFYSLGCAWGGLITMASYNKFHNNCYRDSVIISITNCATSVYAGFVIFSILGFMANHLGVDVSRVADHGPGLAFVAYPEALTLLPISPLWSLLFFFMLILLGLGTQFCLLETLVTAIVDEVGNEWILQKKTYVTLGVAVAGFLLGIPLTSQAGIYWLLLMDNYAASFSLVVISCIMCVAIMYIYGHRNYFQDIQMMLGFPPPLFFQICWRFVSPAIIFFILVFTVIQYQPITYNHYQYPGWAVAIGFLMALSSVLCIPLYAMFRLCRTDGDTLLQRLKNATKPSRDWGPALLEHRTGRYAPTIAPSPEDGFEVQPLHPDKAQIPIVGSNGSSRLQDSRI
Briefly: [14C]-glycine uptake inhibition in JAR cells (human placental choriocarcinoma cells endogenously expressing GlyT1). The format is cell-based. The conditions noted are these: inhibition of specific [14C]-glycine uptake; values given in μM; read-out: Potency. As to the method:
Human placental choriocarcinoma cells endogenously expressing GlyT1 can be cultured using standard conditions. Cells can then be grown at 37° C. in a humidified atmosphere 40-48 hours before the assay. Culture medium can be removed from the culture plate, and cells can be incubated with an amount of TB1A buffer with or without the compounds of the present invention for a sufficient period of time. Then an amount of [^14C]-glycine diluted with TB1A can be added to each well. After incubation the microplates can be sealed and counted. Non-specific uptake of [^14C]-glycine can be determined in the presence of unlabeled glycine. To determine potencies, a range of concentrations of the compounds of the present invention can be added to the cells, followed by the fixed concentration of [^14C]-glycine. The concentration of the present compound that inhibited half of the specific uptake of [^14C]glycine (IC50 value) can be determined from the assay data by non-linear curve fitting.
For `Cn1cnc(S(=O)(=O)N2CCC(C(NC(=O)c3ccccc3C(F)(F)F)c3ccccn3)CC2)c1` (centres unmarked) [Compound 8b], the IC50 is 1.6 µM.

In the case of `Cn1cnc(S(=O)(=O)N2CCC(C(NC(=O)c3ccccc3Cl)c3ccccc3)CC2)c1` (centres unmarked) [Compound 5a], the IC50 was above 10 µM. Still for that read-out and setting: as for `Cn1cc(S(=O)(=O)N2CCC(C(NC(=O)c3ccc(Cl)cc3Cl)c3ccccc3)CC2)cn1` (centres unmarked) [Compound 3c], the figure is 2.4 µM. Consider `Cn1cnc(S(=O)(=O)N2CCC(C(NC(=O)c3c(F)cccc3F)c3ccccn3)CC2)c1` (centres unmarked) [Compound 8c], for which the IC50 was above 10 µM.

As to `Cn1cnc(S(=O)(=O)N2CCC(C(NC(=O)c3ccc(Cl)cc3Cl)c3ccccn3)CC2)c1` (single isomer, unassigned) [Compound 8a-2], the IC50 is 1.6 µM. Still for that read-out and setting: as for `Cn1cnc(S(=O)(=O)N2CCC(C(NC(=O)c3ccc(Cl)cc3Cl)c3ccccc3)CC2)c1` (single isomer, unassigned) [Compound 3b-1], the figure is above 10 µM. The same measure, in the same setting: the value for `CCCS(=O)(=O)N1CCC(C(NC(=O)c2ccc(Cl)cc2Cl)c2ccccc2)CC1` (single isomer, unassigned) [Compound 3a-1] was above 10 µM; that for `CCCS(=O)(=O)N1CCC(C(NC(=O)c2ccc(Cl)cc2Cl)c2ccccc2)CC1` (racemic) [Compound 3a] was 1.5 µM.

Still in this assay, the particulars now being: inhibition of specific [14C]-glycine uptake; values in nM; read-out: Potency.
In the case of `Cn1cnc(S(=O)(=O)N2CCC(C(NC(=O)c3ccc(Cl)cc3Cl)c3ccccc3)CC2)c1` (racemic) [Compound 3b], the IC50 is 0.201 µM. The same measure, in the same setting: the value for `Cn1cnc(S(=O)(=O)N2CCC(C(NC(=O)c3ccc(F)cc3F)c3ccccn3)CC2)c1` (centres unmarked) [Compound 8e] was 0.853 µM.

Take `CC(NC(=O)c1ccc(Cl)cc1Cl)C1CCN(S(=O)(=O)c2cn(C)cn2)CC1` (centres unmarked) [Compound 9b]: the IC50 came out at 0.53 µM. Same read-out and setting: the value for `Cn1cnc(S(=O)(=O)N2CCC(CNC(=O)c3ccc(Cl)cc3Cl)CC2)c1` [Compound 9a] was 0.174 µM. The same measure, in the same setting: the value for `CCCS(=O)(=O)N1CCC(C(NC(=O)c2ccc(Cl)cc2Cl)c2ccccc2)CC1` (single isomer, unassigned) [Compound 3a-2] was 0.609 µM. Same read-out and setting: as for `Cn1cnc(S(=O)(=O)N2CCC(C(NC(=O)c3ccc(Cl)cc3Cl)c3ccccc3)CC2)c1` (single isomer, unassigned) [Compound 3b-2], the figure is 0.178 µM. Turning to `Cn1cnc(S(=O)(=O)N2CCC(C(NC(=O)c3ccc(Cl)cc3Cl)c3ccccn3)CC2)c1` (racemic) [Compound 8a], the IC50 was 0.046 µM. `Cn1cnc(S(=O)(=O)N2CCC(C(NC(=O)c3ccc(Cl)cc3)c3ccccn3)CC2)c1` (centres unmarked) [Compound 8d]: the IC50 worked out at 0.718 µM. Same read-out and setting: as for `Cn1cnc(S(=O)(=O)N2CCC(C(NC(=O)c3ccc(Cl)cc3Cl)c3ccccn3)CC2)c1` (single isomer, unassigned) [Compound 8a-1], the figure is 0.09 µM.

(Values after patent publication US8436019B2, “Sulfonyl-piperidin-4-yl methylamine amide analogs as GlyT1 inhibitors, methods for making same, and use of same in treating psychiatric disorders” (Vanderbilt University, priority 2009, dated 2013).)
